Biological target: T1, human histone demethylase JMJD2A (catalytic domain, residues 1-350) (Homo sapiens, UniProt O75164)
T1 construct: recombinantly produced catalytic domain, residues 1-350, of the human histone demethylase JMJD2A
T1 sequence (O75164 1-350): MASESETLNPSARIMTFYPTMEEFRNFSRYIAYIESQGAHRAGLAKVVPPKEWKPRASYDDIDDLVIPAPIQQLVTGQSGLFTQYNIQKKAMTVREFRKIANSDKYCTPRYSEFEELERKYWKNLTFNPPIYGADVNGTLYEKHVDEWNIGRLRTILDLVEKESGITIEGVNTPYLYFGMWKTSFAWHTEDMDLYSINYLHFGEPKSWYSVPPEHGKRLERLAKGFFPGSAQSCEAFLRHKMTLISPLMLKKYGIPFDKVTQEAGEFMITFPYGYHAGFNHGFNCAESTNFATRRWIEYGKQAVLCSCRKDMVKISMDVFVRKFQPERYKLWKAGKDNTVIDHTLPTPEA
Assay: Jumonji type histone demethylase (JMJD2A) activity assay with Luminos reagent formaldehyde fluorescence detection
Assay type: biochemical
Conditions: 1.0 mM NOG; 0.5 mM 2-OG, 0.3 mM H3K9me3 peptide, 5 μM JMJD2A, 37° C., 30 minutes; triplicate
Method: A series of demethylase assays with Luminos reagent are performed. These assays are conducted with recombinantly produced catalytic domain, residues 1-350, of the human histone demethylase JMJD2A that demethylates the trimethylated forms of Lys9 and Lys36 in histone H3.
A positive control assay is performed using a 100 microliter assay cocktail of 20 mM HEPES pH 7.5, 50 mM NaCl, 1 mM Sodium Ascorbate, 0.05 mM FeSO4, and 5 μM JMJD2A. The assay is initiated by the addition of the cofactor 2-oxoglutarate (2-OG, 0.5 mM) and a 15-residue histone H3 trimethylated Lys9 (H3K9me3) substrate peptide (0.3 mM, H2N-[…](tri-methyl)STGGKA-amide) (SEQ ID NO. 1).
Three negative control reactions are performed in which 2-OG, the H3K9me3 peptide, and JMJD2A are omitted, respectively. […] Specifically, reactions are performed with 1.0 mM N-oxalylglycine (NOG), a competitive inhibitor of 2-OG, and desferoxamine (0.2 mM), a potent Fe(II) chelator that inhibits the oxidative reaction catalyzed by Fe(II)-dependent JmjC demethylases. […] Fifty microliters of the Luminos reagent solution prepared as described in Example 1 is then added to each reaction and the fluorescence is allowed to develop at 37° C. for 30 minutes. The fluorescence of the formaldehyde-Luminos reagent adduct is measured at 510 nm using an excitation wavelength of 440 nm with a Tecan Safire 2 microplate reader. […]

Structure (SMILES): O=C(O)CNC(=O)C(=O)O [NOG, N-oxalylglycine]
- diminishes fluorescence in comparison to the positive control assay: two-fold

— patent US8765396B2, “Method of screening a test agent for activity to modulate an oxidative demethylation enzyme” (Arbor Assays LLC, priority 2009, dated 2014)
